Source: patent US4011238A, “2-Imidazolidione derivatives” (Gruppo Lepetit S.p.A., priority 1972, dated 1977)
Where two headings read alike, the source gives them in different places.

What was measured:
[1] = acute toxicity (LD50), rat i.p.; settings: in vivo, ip
[2] = test system: secondary conditioned response; assay: CR2: inhibition of the secondary conditioned response; format: in vivo, rat; settings: ip, read-out: CR2 (ED50)
Protocol: (§1) The symbols CR and CR2 relate, respectively, to the tests of inhibition of the primary and secondary conditioned response according to the method of L. Cook et al., Ann. […] The inhibition of apomorphine emesis test in the dog is carried out according to the method of G. Chen. et al., J. Pharm. Exptl.

[3] = test system: primary conditioned response; assay: CR: inhibition of the primary conditioned response; format: in vivo, rat; settings: ip, read-out: CR (ED50)
Protocol: as §1

Apomorphine emesis = assay: inhibition of apomorphine emesis test in the dog; format: in vivo; settings: for ED50: Canis lupus familiaris, ip, read-out: Apomorphine emesis (ED50)
Protocol: as §1

cardiovascular system = assay: side effects on the cardiovascular system; format: in vivo; settings: in comparison with chlorpromazine; at a dose level 5 to 10 times higher than that of chlorpromazine
conditioned behavior = assay: conditioned behavior; format: in vivo, rat; settings: in comparison with chlorpromazine, in words
Protocol: as §1

[4] = rat, i.p., secondary conditioned response
[5] = rat, i.p., primary conditioned response

Structure (SMILES): CC1(C)CN(CCN2CCN(c3cccc(Cl)c3)C2=O)C1 [A, 1-(m-chlorophenyl)-3-[2-(3,3-dimethylazetidin-1-yl)ethyl]-2-imidazolidinone]
- LD50 [1]: 200 mg/kg
- ED50 [2, 4]: 0.25 mg/kg
- ED50 [3, 5]: 0.5 mg/kg
- ED50 (Apomorphine emesis; dog, i.p.): < 0.05 mg/kg
- anti-emetic effect (Apomorphine emesis; in comparison with chlorpromazine, in words): more potent anti-emetic effect
- side effects on the cardiovascular system (cardiovascular system): much lower side effects on the cardiovascular system
- activity on the conditioned behavior (conditioned behavior): more specific activity on the conditioned behavior

Structure (SMILES): CN(C)CCCN1c2ccccc2Sc2ccc(Cl)cc21 [CPZ, chlorpromazine]
- LD50 [1]: 120 mg/kg
- ED50 ([2]; Rattus norvegicus): 0.96 mg/kg
- ED50 ([3]; Rattus norvegicus): 3.95 mg/kg
- ED50 (Apomorphine emesis): 1 mg/kg

Structure (SMILES): CN(C)CCN1CCN(c2cccc(Cl)c2)C1=O [Imidoline, 1-(m-chlorophenyl)-3-(2-dimethylaminoethyl)-2-imidazolidinone]
- LD50 [1]: 200 mg/kg
- ED50 [2, 4]: 2.5 mg/kg
- ED50 [3, 5]: 5 to 10 mg/kg
- ED50 (Apomorphine emesis; dog, i.p.): 0.25 mg/kg
